# Data published in PubChem BioAssay AID2647 (Sanford-Burnham Center for Chemical Genomics, 2010).
# Tested on: MDA-MB-435/MDR TRAIL potentiation, ATPlite luminescence, 24 h
# Experiment: PubChem AID 2647
smiles,measurement,setting,value
CSc1nc(-c2ccc(C)cc2)nc(C(Cl)Cl)n1,cytotoxicity with TRAIL,at 10 µM (top of the series),84%
same,cytotoxicity,"compound alone without TRAIL, at 10 µM, stronger effect = higher value",1%
